This note sets out measurements from patent US5959113A, “Imidazol derivatives” (Hoffmann-La Roche Inc., priority 1994, dated 1999).

The target of test [1] is T1, EGF-receptor tyrosine kinase (Homo sapiens, UniProt P00533).
T1 construct: A membrane fraction from human A431 cells is used as the enzyme; endogenous in cells; host or cells: A431 cells, membrane fraction (Thom et al., Biochem. J. 168, 187 (1977))
The test is described as follows: Inhibition of EGF-receptor Tyrosine Kinase. The format is biochemical. The settings on record: EGF-R from A431 cell membranes, 30 °C, 30 min, ATP 10 μM, RR-src peptide 0.75 mM; read-out: IC50 Isolated enzyme EGF-R. The method, then:
Inhibition of EGF-receptor Tyrosine Kinase
The activity of EGF-receptor tyrosine kinase is determined by measuring the transfer of ^32 P-labelled phosphate from ^32 P-γ-ATP (10 μM) to the substrate RR-scr peptide* (0.75 mM). A membrane fraction from human A431 cells is used as the enzyme. It is isolated according to Thom et al., Biochem. J. 168, 187 (1977) and stored at -75° C. (4-6 mg protein/ml). The compounds are tested in 10% DMSO in a concentration of 0.001-100 μM. The incubation is carried out at 30° C. for a period of 30 minutes in Tris buffer (25 mM, pH 7.4) which contains magnesium acetate (30 mM), sodium vanadate (0.5 mM), 0.5% BSA and 0.05% Triton X-100. The membranes are pre-incubated with 2 μM of EGF at 4° C. for 90 minutes. The test is started by adding the enzyme (2 μg of membrane protein) and terminated by adding ice-cold KH2 PO4 (1M, pH 3.0). After centrifugation the labelled peptide is separated from excess ATP in the supernatant by reversed phase HPLC. The peptide fraction is collected and the radioactivity is measured in a standard β-counter or on-line with a radiometer (Berthold). The inibitory activity of the test compound is expressed as the mikromolar concentration which is required for 50% inhibition (IC50 [μM]).
*RR-src peptide=[Arg-Arg-Leu-Ile-Glu-Asp-Ala-Glu-Tyr-Ala-Ala-Arg-Gly]
(§1) The inhibition of selected protein kinases in vitro and the inhibition of cell proliferation in HaCaT-cells by these compounds are set forth in the following Table.

The next test addresses T2, p56^Ick tyrosine kinase (Homo sapiens, UniProt P06239).
T2 construct: made in house; host or cells: E. coli
Briefly: Inhibition of p56^Ick tyrosine kinase. Type of test: biochemical. The settings on record: human recombinant p56lck, 30 °C, 30 min, ATP 10 μM, RR-src peptide 0.75 mM; read-out: IC50 Isolated enzyme p56^lck. The method, then:
Inhibition of p56^Ick tyrosine kinase
The activity of p56^Ick tyrosine kinase is determined by measuring the transfer of ^32 P-labelled phosphate from ^32 P-γ-ATP (10 μM) to the substrate RR-src peptide (0.75 mM). Human recombinant p56^Ick (expressed in E. coli) is used as the enzyme.
It is purified from the soluble fraction by means of a monoclonal antibody column and stored at -75° C. The compounds are tested in 10% DMSO in a concentration of 0.001-100 μM, The incubation is carried out at 30° C. for a period of 30 minutes in HEPES buffer (50 mM, pH 6.9) which contains manganese chloride (11 mM) and 0.5% BSA. The test is started by adding the enzyme and terminated by adding ice-cold KH2 PO4 (1M, pH 3.0). After centrifugation the radiolabelled peptide is separated from excess ATP in the supernatant by reversed phase HPLC. The peptide fraction is collected and the radioactivity is determined in a standard β- counter or on-line with a radiometer (Berthold). The inhibitory activity of the test compound is expressed as the micromolar concentration which is required for 50% inhibition (IC50 [μM]).
as §1

Another test has as its target protein kinase C (PKC). The test is described as follows: Inhibition of protein kinase C (PKC). The settings on record: partially purified PKC from hog brain, histone H1, ATP 10 μM, 2 min at 32 °C; read-out: IC50 Isolated enzyme PCK. Type of test: biochemical. The method, then: Inhibition of protein kinase C (PKC)
The activity of PKC is measured by measuring the transfer of ^32 P-labelled phosphate from ^32 P-γ-ATP (10 μM) to the substrate histone H1 (200 μg/ml) using partially purified PKC from hog brain (DEAE chromatography according to U. Kikkawa et al., Methods Enzymol. 99, 288, 1983). PKC is activated by phospholipid vesicle prepared by sonicating a mixture of 0.05 ml of phosphatidylserine (10 mg/ml) and 0.005 ml of diolein (10 mg/ml) in 5 ml of Tris HCl buffer (20 mM, pH 7.4). The compounds are tested in DMSO/buffer at a concentration of 0.001-100 μM. The test is started by adding the enzyme, takes 2 minutes at 32° C. and is terminated by adding 20% trichloroacetic acid (containing 1% SDS and 1% sodium pyrophosphate). The precipitated protein with the labelled histone is separated from excess ATP by filtration over a nitrocellulose membrane filter. The radioactivity on the filter is measured in a scintillation counter. The inhibitory activity of the test compound is expressed as the micromolar concentration which is required for 50% inhibition (IC50 [μM]).
as §1

The target in test [2] is cAMP-dependent protein kinase (PKA). The test is described as follows: Inhibition of cAMP-dependent protein kinase (PKA). The format is biochemical. The settings on record: partially purified PKA from hog brain, histone H1, ATP 10 μM, 2 min at 32 °C; read-out: IC50 Isolated enzyme PKA. The method, then: Inhibition of cAMP-dependent protein kinase (PKA)
The activity of PKA is measured by measuring the transfer of ^32 P-labelled phosphate from ^32 P-γ-ATP (10 μM) to the substrate histone H1 (333 μg/ml) using partially purified PKA from hog brain (DEAE chromatography according to U. Kikkawa et al., Methods Enzymol. 99, 288, 1983). PKA is activated by 2 μM of cAMP in Tris HCl buffer (20 mM, pH 7.4). The compounds are tested in DMSO/buffer at a concentration of 0.001-100 μM. The test is started by adding the enzyme, takes 2 minutes at 32° C. and is terminated by adding 20% trichloroacetic acid (containing 1% SDS and 1% sodium pyrophosphate). The precipitated protein, which contains the radiolabelled histone, is separated from excess ATP by filtration through a nitrocellulose membrane filter. The radioactivity on the filter is determined in a scintillation counter. The inhibitory activity of the test compounds is expressed as the micromolar concentration which is required for 50% inhibition (IC50 [μM]).
as §1

The subject of a further test is HaCaT cells. Briefly: Inhibition of HaCaT cell proliferation. The format is cell-based. The settings on record: Homo sapiens, [3H]-thymidine incorporation, 48 h at 37 °C. The method, then:
Inhibition of HaCaT cell proliferation
HaCaT is a spontaneous immortalized human keratinoycte cell line (Boukamp et al. 1988) which has been used many times as a model system for hyperproliferative keratinoyctes. The incorporation of [^3 H]-thymidine was used to quantify the growing cells in the S phase of the cell cycle. The cells were cultivated with a 3:1 mixture of DMEM/F12 medium which had been supplemented with 5% FCS, EGF (10 μg/l), hydrocortisone (400 μg/l), cholera toxin (8.5 μg/l), insulin (5 μg/l), L-glutamine (2 mM) and penicillin/streptomycin. 200 μl of medium were placed in microtitre plates such that each sample contained 5000 cells. The test compounds were added in serial dilutions in the range of 1×10^-8 M to […] at the beginning of the cultivation. The cells were incubated at 37° C. for 48 hours. For the last 6 hours [^3 H]-thymidine was added ([…]). After digesting the cells with trypsin the amount of incorporated radioactivity was quantified with a liquid scintillation counter.
as §1

The next test concerns mouse hair follicles. The test is described as follows: Stimulation of cell proliferation in cultured mouse hair follicles. Type of test: cell-based. Here is the method:
Stimulation of cell proliferation in cultured mouse hair follicles
Mouse hair follicles are isolated and cultured according to the method described by Buhl et al., J. Invest. Dermatol. 92, 315 (1989). Whisker parts are removed from CD-1 mice aged 4 days and the hair follicles are carefully separated from surrounding tissue under the microscope. Hair follicles are cultured in M199 medium which contains 20% FBS and the cell proliferation is determined from the incorporation of [^3 H]-thymidinein DNA. The test compounds are dissolved in DMSO and added in serial dilutions in the range of 1×10^-8 to 1×10^-6 M at the beginning of the cultivation. After 1 day 5 μCi/ml of [^3 H]-thymidine are added to the culture medium and the follicles are incubated for a further 3 days. The hair follicles are then washed with phosphate-buffered saline solution in order to remove non-incorporated radioactivity and the DNA is solubilized by incubation with alkali overnight. The radioactivity incorporated into the follicular DNA is then measured using a liquid scintillation counter.

T2 sequence (P06239 whole entry): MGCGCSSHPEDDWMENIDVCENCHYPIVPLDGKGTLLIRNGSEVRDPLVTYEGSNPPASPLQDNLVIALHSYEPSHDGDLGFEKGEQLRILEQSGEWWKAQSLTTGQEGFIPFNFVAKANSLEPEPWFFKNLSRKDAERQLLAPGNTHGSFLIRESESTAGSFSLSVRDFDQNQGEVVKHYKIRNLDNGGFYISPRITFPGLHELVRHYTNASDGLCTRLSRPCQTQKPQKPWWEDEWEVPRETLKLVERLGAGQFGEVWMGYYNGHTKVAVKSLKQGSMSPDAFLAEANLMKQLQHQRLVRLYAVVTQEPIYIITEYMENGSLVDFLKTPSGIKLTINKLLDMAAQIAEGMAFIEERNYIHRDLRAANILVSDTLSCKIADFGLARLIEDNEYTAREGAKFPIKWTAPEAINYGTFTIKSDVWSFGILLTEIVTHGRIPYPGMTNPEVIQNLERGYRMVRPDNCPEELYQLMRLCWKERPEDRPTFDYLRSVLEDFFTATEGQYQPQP
T1 sequence (P00533 25-1210): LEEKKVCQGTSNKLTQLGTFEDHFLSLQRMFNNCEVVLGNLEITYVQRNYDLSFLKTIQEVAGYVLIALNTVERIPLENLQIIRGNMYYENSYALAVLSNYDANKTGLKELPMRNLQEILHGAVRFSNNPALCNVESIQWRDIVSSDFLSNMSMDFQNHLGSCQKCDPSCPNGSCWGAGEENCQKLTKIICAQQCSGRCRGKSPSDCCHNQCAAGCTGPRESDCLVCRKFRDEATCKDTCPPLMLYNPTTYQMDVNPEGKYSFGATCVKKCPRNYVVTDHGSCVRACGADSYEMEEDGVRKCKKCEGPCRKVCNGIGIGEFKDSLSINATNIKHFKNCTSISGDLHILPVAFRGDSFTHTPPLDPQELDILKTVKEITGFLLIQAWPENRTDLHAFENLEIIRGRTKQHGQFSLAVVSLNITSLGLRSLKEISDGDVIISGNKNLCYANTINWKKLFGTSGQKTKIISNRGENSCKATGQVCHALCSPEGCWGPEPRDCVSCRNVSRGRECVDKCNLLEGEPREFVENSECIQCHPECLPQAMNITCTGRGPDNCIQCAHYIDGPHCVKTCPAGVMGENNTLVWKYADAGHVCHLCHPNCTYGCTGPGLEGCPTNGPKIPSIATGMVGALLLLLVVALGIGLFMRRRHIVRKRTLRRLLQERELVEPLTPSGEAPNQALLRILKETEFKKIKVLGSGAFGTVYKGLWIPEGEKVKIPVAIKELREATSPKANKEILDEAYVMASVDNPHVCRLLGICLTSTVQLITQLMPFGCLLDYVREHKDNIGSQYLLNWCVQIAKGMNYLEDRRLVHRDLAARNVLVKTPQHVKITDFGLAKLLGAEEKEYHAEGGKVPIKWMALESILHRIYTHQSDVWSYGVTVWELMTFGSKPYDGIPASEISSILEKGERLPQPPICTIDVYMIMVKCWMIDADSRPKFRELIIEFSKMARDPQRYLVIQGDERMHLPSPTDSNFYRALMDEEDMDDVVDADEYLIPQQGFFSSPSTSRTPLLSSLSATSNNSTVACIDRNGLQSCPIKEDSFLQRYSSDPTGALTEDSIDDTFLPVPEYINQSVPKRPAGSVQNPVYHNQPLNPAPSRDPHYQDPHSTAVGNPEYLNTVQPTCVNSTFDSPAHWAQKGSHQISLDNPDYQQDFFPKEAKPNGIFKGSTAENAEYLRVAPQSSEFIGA

With `Cc1cccc(-c2[nH]c(-c3c(C)cc(C)cc3C)nc2-c2ccncc2)c1` [Example 4, 4-[5-(3-methylphenyl)-2-(2,4,6-trimethylphenyl)imidazol-4-yl]pyridine], the IC50 is 0.8 µM in test [1]; 6 µM at p56^Ick tyrosine kinase; greater than 100 µM on protein kinase C (PKC); 190 µM in test [2]; 2 µM in the test on HaCaT cells.
In the case of `CC(C)c1cccc(C(C)C)c1-c1nc(-c2ccncc2)c(-c2ccc(Cl)cc2)[nH]1` [Example 7, 4-[5-(4-chlorophenyl)-2-(2,6-diisopropylphenyl)imidazol-4-yl]pyridine], the IC50 in test [1] was determined as 0.13 µM; at p56^Ick tyrosine kinase, 3.1 µM; at protein kinase C (PKC), 100 µM; in test [2], 0.47 µM; in the test on HaCaT cells, 3.5 µM.
The like results for `COC(=O)c1c(C)cc(C)c(-c2nc(-c3ccncc3)c(-c3ccc(Cl)cc3)[nH]2)c1C` [Example 9, methyl 3-[5-(4-chlorophenyl)-4-pyridin-4-yl-imidazol-2-yl]2,4,6-trimethylbenzoate] were, in that order, 0.14 µM, 3.8 µM, 80 µM, 6 µM and 0.23 µM.
The like results for `Cc1cc(C)c(-c2nc(-c3ccncc3)c(-c3ccc(Cl)cc3)[nH]2)c(C)c1CN1CCOCC1` [Example 11, 4-[3-[5-(4-chlorophenyl)-4-pyridin-4-yl-imidazol-2-yl]-2,4,6,-trimethylbenzyl]morpholine] were, in that order, 0.26 µM, 5.1 µM, greater than 100 µM, 43 µM and 0.1 µM.
The like results for `Cc1cc(C)c(-c2nc(-c3ccncc3)c(-c3ccc(Cl)cc3)[nH]2)c(C)c1CN(C)C` [Example 12, [3-[5-(4-chlorophenyl)-4-pyridin-4-yl-imidazol-2-yl]-2,4,6,-trimethylbenzyl]dimethylamine] were, in that order, 0.05 µM, 1.65 µM, 7 µM, 5 µM and 0.57 µM.
For `Cc1cc(C)c(-c2nc(-c3ccncc3)c(-c3ccc(Cl)cc3)[nH]2)c(C)c1CN1CCN(C)CC1` [Example 13, 1-[3-[5-(4-chlorophenyl)-4-pyridin-4-yl-imidazol-2-yl]-2,4,6,-trimethylbenzyl]-4-methylpiperazine], the IC50 in test [1] was 0.05 µM; on p56^Ick tyrosine kinase, 1.8 µM; at protein kinase C (PKC) it was 37 µM; in test [2], 1.5 µM; in the test on HaCaT cells, 0.1 µM.
Take `Cc1cc(C)c([N+](=O)[O-])c(C)c1-c1nc(-c2ccncc2)c(-c2ccc(Cl)cc2)[nH]1` [Example 15, 4-[5-(4-chlorophenyl)-2-(2,4,6-trimethyl-3-nitrophenyl)-imidazol-4-yl]pyridine]: the results for the IC50 (in test [1]; on p56^Ick tyrosine kinase; in the test on HaCaT cells) were 0.78 µM, 4.95 µM and 0.67 µM, respectively.
The like results for `Cc1cc(C)c(-c2nc(-c3ccncc3)c(-c3ccc(Cl)cc3)[nH]2)c(C)c1O` [Example 16, 3-[5-(4-chlorophenyl)-4-pyridin-4-yl-imidazol-2-yl]-2,4,6,-trimethylphenol] were, in that order, 0.31 µM, 2.2 µM and 0.8 µM.
As for `Nc1cccc(Cl)c1-c1nc(-c2ccncc2)c(-c2ccc(Cl)cc2)[nH]1` [Example 18, 3-chloro-2-[5-(4-chlorophenyl)-4-pyridin-4-yl-imidazol-2-yl]phenylamine], the IC50 in test [1] worked out at 0.29 µM; on p56^Ick tyrosine kinase, 14 µM; on protein kinase C (PKC), 23 µM; in test [2], 1.8 µM; in the test with HaCaT cells, 2 µM.
For the molecule `Nc1cc(N2CCCCC2)nc(N)[n+]1[O-]` [minoxidil, reference compound], the EC50 with mouse hair follicles ([3H]-thymidine incorporation, CD-1 mouse whisker follicles, read-out: concentration which resulted in a half-maximum stimulation of the DNA synthesis (EC50 value)) was 200 µM. The “stimulation of hair follicle DNA synthesis (compared with controls)” value with mouse hair follicles (concentration not given, comparison agent, 5760 min) is 160±15%.
